Tests used:
patients with T1D [1] = experiment: CGM metrics after exercise session, randomized 4-period crossover trial of mini-dose glucagon in T1D; assay type: in vivo, human; conditions: no statistically significant differences
Excerpt: Visit Schedule. (1) Screening/Baseline Visit. This visit will be used to assess eligibility and can include determination of VO2 max for fitness evaluation and for the determination of exercise intensity for the study. (2) Randomized Crossover Trial. Each participant will undergo four aerobic exercise sessions (in random order), with different strategies for glucose regulation that include: (i) Control: Fasted exercise, no basal insulin reduction; (ii) Strategy 1: Fasted exercise, basal insulin reduction only (50% reduction in basal rate five minutes before exercise, for the duration of the exercise); (iii) Strategy 2: Fasted exercise, no basal adjustment+pre-exercise glucose tabs (buccal route-40 grams in total); (iv) Strategy 3: Fasted exercise, no basal adjustment+pre-exercise mini-dose glucagon (sc). In all 4 sessions, aerobic exercise will be performed in the fasted state (before a standardized meal) for 45 minutes at ˜50-55% of the participant's predetermined aerobic capacity. The strategies for select sessions will be blinded. The day before each exercise session participants will: Insert new insulin infusion set into abdomen or upper buttock (ensure not in exercising limb); For CGM users, insert a new CGM sensor; For non-CGM users, come into clinic to have a CGM sensor inserted to use with a blinded receiver. For participants using the blinded CGM, the sensor will be removed at 12:00 PM the next day at home (˜24 hours after the end of exercise). The participant will bring the device to the next visit or mail it back to the clinic. Participants will receive a phone call the day after each exercise session to elicit any adverse events. For CGM users, the CGM data will be downloaded at each visit and arrangements made to transmit the data following the last exercise session. The participant's insulin pump will be downloaded at each visit and arrangements made to transmit the data following the last exercise session. Subjects aged 18-<65 years with a duration of T1D ≥2 years, a random C-peptide <0.6 ng/ml, that use CSII (Insulin pump) for at least 6 months, with no plans to discontinue pump use during the study and exercise regularly, ≥30 minutes moderate or more vigorous aerobic activity X≥3 times/week were randomized in a 4-period crossover trial. The control was no basal insulin adjustment, no carbs unless glucose <70 mg/dL (then 20 g dextrose given). Basal Rate Reduction: Basal rate decreased by 50% 5 minutes before start of exercise (basal rate returned to usual rate at end of exercise). Glucose Tabs: Dextrose tabs orally (20 grams) 5 min before start of exercise and 20 grams again at 30 min after start. Mini-Dose Glucagon: Glucagon (150 μg) 5 min before start of exercise (SQ-abdomen). Exercise consisted of moderate intensity aerobic activity (treadmill brisk uphill walking) performed at 50-55% VO2 max for 45 min. Performed in fasted state. Same workload performed at each exercise session. Exercise was terminated if: glucose <70 mg/dL (participant treated for hypo) and/or participant experienced dizziness, pallor and other symptoms of poor perfusion and/or exercise intolerance. Following each exercise session, participants rested for 30 min and then consumed a standardized meal. Meal contained 44-50 grams of carbohydrate (55% of calories from carbohydrate, 20% from protein, and 25% from fat). Insulin is administered as pump bolus 5 min before standardized meal using participants own carbohydrate ratio with correction only if glucose ≥270 mg/dL.

patients with T1D [2] = experiment: Plasma glucose (YSI analyzer) during exercise/early recovery and post meal, randomized 4-period crossover trial; assay type: in vivo, human
Excerpt: Visit Schedule. (1) Screening/Baseline Visit. This visit will be used to assess eligibility and can include determination of VO2 max for fitness evaluation and for the determination of exercise intensity for the study. (2) Randomized Crossover Trial. Each participant will undergo four aerobic exercise sessions (in random order), with different strategies for glucose regulation that include: (i) Control: Fasted exercise, no basal insulin reduction; (ii) Strategy 1: Fasted exercise, basal insulin reduction only (50% reduction in basal rate five minutes before exercise, for the duration of the exercise); (iii) Strategy 2: Fasted exercise, no basal adjustment+pre-exercise glucose tabs (buccal route-40 grams in total); (iv) Strategy 3: Fasted exercise, no basal adjustment+pre-exercise mini-dose glucagon (sc). In all 4 sessions, aerobic exercise will be performed in the fasted state (before a standardized meal) for 45 minutes at ˜50-55% of the participant's predetermined aerobic capacity. The strategies for select sessions will be blinded. Sample collection. Blood samples collected through a venous catheter with plasma glucose measured by an YSI analyzer. Blood samples will be collected at: Baseline (at −30, −15, −5, 0 min), During exercise (at 5, 10, 15, 25, 35, 45 min), In recovery post exercise (at 50, 55, 60, 75 min), Regularly following a standardized mixed meal for 90 minutes (at 90, 105, 120, 135, and 165 min). Plasma from the collected blood samples will be used to measure the following hormones, proinflammatory markers and metabolites at baseline, during exercise, in recovery post exercise, and regularly following the standardized mixed meal: Insulin, Glucagon, Cortisol, Growth hormone, Catecholamines (epinephrine and norepinephrine), Interleukin-6, tumor necrosis factor-α, Nonesterified fatty acids, β-hydroxybutyrate, and/or Lactate. […]

[3] = late recovery period (standard meal to noon the day after exercise session), mean
[4] = late recovery period (standard meal to noon the day after exercise session), median
[5] = overnight (midnight to 6 am the day after exercise session), mean
[6] = overnight (midnight to 6 am the day after exercise session), median

glucagon [MDG]
% of time 70-180 mg/dL-mean (patients with T1D [1]; [3]): 66%
% of time <70 mg/dl-mean (patients with T1D [1]; [3]): 7%
Coefficient of Variation-median (patients with T1D [1]; [4]): 34%
Mean Glucose, mg/dL-median (patients with T1D [1]; [4]): 150 mg/dL
Nadir Glucose, mg/dL-median (patients with T1D [1]; [4]): 51 mg/dL
% of time 70-180 mg/dl-mean (patients with T1D [1]; [5]): 59%
% of time <70 mg/dl-mean (patients with T1D [1]; [5]): 4%
Coefficient of Variation-median (patients with T1D [1]; [6]): 21%
Mean Glucose, mg/dl-median (patients with T1D [1]; [6]): 156 mg/dL
Nadir Glucose, mg/dL-median (patients with T1D [1]; [6]): 91 mg/dL
Occurrence of Hypoglycemia (<70 mg/dL)-% (patients with T1D [1]; overnight (midnight to 6 am the day after exercise session)): 23%
post-intervention hyperglycemia (patients with T1D [2]; compared with ingestion of carbohydrate): less post-intervention hyperglycemia than ingestion of carbohydrate
reducing exercise-induced hypoglycemia (patients with T1D [2]; compared with insulin reduction): more effective than insulin reduction
frequency of a drop in glucose concentration (patients with T1D [2]; given just before aerobic exercise, people with type 1 diabetes): reduces the frequency of a drop in glucose concentration

Source: US12514907B2, “Treatment of exercise-induced hypoglycemia in type 1 and insulin using type 2 diabetes” (Xeris Pharmaceuticals, Inc., priority 2017, dated 2026)
